Test results published in patent US20230114728A1 (Venatorx Pharmaceuticals, Inc., priority 2019, published 2023).
Values after ≈ are worked out from the molar mass of the structure shown.

Legend:
[1] = Bocillin-FL fluorescence polarization competition binding assay, A. baumannii PBP3; details: fluorescence polarization competition binding assay using Bocillin-FL; column 3; read-out: 4. baumannii PBP1a Potency
Description: Example I: Experimental Method for Penicillin-Binding Protein Binding Assays with Bocillin-FL Via Fluorescence Polarization
To determine the ability of boronic acid-based test PBP inhibitors to bind Penicillin Binding Proteins (PBPs), Bocillin-FL (fluorescently-labeled penicillin V; ThermoFisher Scientific) was used in a fluorescence polarization (FP) competition binding assay to assess inhibitor binding to PBP2, PBP3 or PBP4 from Escherichia coli (K12), PBP3 from Pseudomonas aeruginosa (PA01), PBP1a, PBP2 and PBP3 from Acinetobacter baumannii (ATCC 19606), and PBP2 from Neiserria gonorrheae (FA19). PBPs were cloned and purified as described previously (E. coli PBPs, King, D. T, et al., ACS Infectious Diseases 2015, 1, 175-184; P. aeruginosa PBP3, Han et. al., PNAS 2010, 107 (51), 22002-22007; A. baumannii PBPs, Penwell et. al., Antimicrob. Agents Chemother. 2015, 59 (3), 1680-1689; N. gonorrhoeae PBP2, Singh et. al., J Biol. Chem. 2019, 294 (38), 14020-14032). To establish assay conditions for competition binding, enzyme titration/saturation binding experiments were initially performed. Bocillin-FL was prepared at 0.2 μM in a buffer comprised of 50 mM Hepes (pH 8.0), 300 mM NaCl and 5% (v/v) glycerol for reactions with E. coli, P. aeruginosa and N. gonorrhoeae PBPs, and 25 mM Tris (pH 8.0), 200 mM NaCl and 10% (v/v) glycerol and 0.005% (v/v) Tween 20 for reactions with A. baumannii PBPs. Saturation binding was performed by mixing 40 μl of PBP solutions ranging in concentrations from 0-24 μM with 40 μl of the 0.2 μM Bocillin-FL solution, in individual wells of a black 384-well microplate. FP was measured immediately upon mixing (Excitation, 490 nm; Emission, 520 nm; g-factor, 0.96), using a Cytation3 (BioTek) microplate reader and measured continuously for up to 120 minutes. […] The competition binding assay (80 μl final volume) was validated using beta-lactams and PBPs at final concentrations of: 1.5 μM, E. coli PBP3; 0.75 μM, P. aeruginosa PBP3; 1 μM A. baumannii PBP1a; 2.5 μM A. baumannii PBP2; 0.2 μM A. baumannii PBP3; and […] N. gonorrhoeae PBP2. Bocillin-FL was at 0.1 μM (0.05 μM with A. baumannii PBP1a) and beta-lactam concentrations ranged from 0-1000 μM. […] Bocillin-FL was added and the FP immediately measured for up to 60 minutes (90 minutes for E. coli PBP2). […] The beta-lactam potency was reported as the concentration of beta-lactam required to reduce the amount of PBP bound-Bocillin-FL by 50% (EC50). […] Binding assays for boronic acid PBP inhibitors were performed in an identical fashion for the respective PBPs

[2] = test system: E. coli AG100; test: Broth microdilution MIC in CAMHB; format: cell-based; details: Escherichia coli; E. coli AG100 (wild-type parent); MHB; read-out: Minimum Inhibitory Concentration, E. coli AG100
In short: (§1)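 Colonies from cation-adjusted Mueller Hinton agar are grown in broth (3-5 h, 37° C), adjusted by OD600, and added at 2-8×10^5 CFU/mL to 2-fold compound dilutions. After 16-20 h at 37° C, the lowest concentration without growth is taken as MIC.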

[3] = test system: K. pneumoniae 848844 producing SHV-11 and KPC-2; test: Broth microdilution MIC in CAMHB; format: cell-based; details: Klebsiella pneumoniae, read-out: Minimum Inhibitory Concentration, K. pneumoniae 848844
In short: as §1

[4] = test system: K. pneumoniae UMM producing SHV-5 and KPC-2; test: Broth microdilution MIC in CAMHB; format: cell-based; details: Klebsiella pneumoniae, read-out: Minimum Inhibitory Concentration, K. pneumoniae UMM
In short: as §1

[5] = test system: E. coli AG100A; test: Broth microdilution MIC in CAMHB; format: cell-based; details: Escherichia coli, read-out: Minimum Inhibitory Concentration, E. coli AG100A
In short: as §1

[6] = test system: A. baumannii ATCC 19606; test: Broth microdilution MIC in CAMHB; format: cell-based; details: Acinetobacter baumannii, ATCC19606; MHB; read-out: Minimum Inhibitory Concentration, A. baumannii ATCC 19606
In short: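 MIC, read by eye, is the lowest compound concentration giving no bacterial growth after 16-20 h at 37° C. Test compounds are serially diluted 2-fold in CAMHB and seeded with 2-8×10^5 CFU/mL of bacteria taken from a 3-5 h shaking culture, following CLSI methods.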

[7] = test system: E. coli 901C; test: Broth microdilution MIC in CAMHB; format: cell-based; details: Escherichia coli; E. coli 901C (hyper-permeable); MHB; read-out: Minimum Inhibitory Concentration, E. coli 901C
In short: as §1

[8] = test system: K. pneumoniae SI-117 producing VIM-1; test: Broth microdilution MIC in CAMHB; format: cell-based; details: Klebsiella pneumoniae, read-out: Minimum Inhibitory Concentration, K. pneumoniae SI-117
In short: as §1

[9] = test system: P. aeruginosa (ΔmexAB-oprM); test: Broth microdilution MIC in CAMHB; format: cell-based; details: Pseudomonas aeruginosa, read-out: Minimum Inhibitory Concentration, P. aeruginosa ΔmexAB-OprM
In short: as §1

[10] = test system: E. coli D22; test: Broth microdilution MIC in CAMHB; format: cell-based; details: Escherichia coli; E. coli D22 (hyper-permeable); MHB; read-out: Minimum Inhibitory Concentration, E. coli D22
In short: as §1

[11] = test system: P. aeruginosa ATCC 35151; test: Broth microdilution MIC in CAMHB; format: cell-based; details: Pseudomonas aeruginosa, ATCC35151; MHB; hyper-permeable strain; read-out: Minimum Inhibitory Concentration, P. aeruginosa ATCC 35151
In short: as §1

[12] = test system: E. coli ATCC 25922; test: Broth microdilution MIC in CAMHB; format: cell-based; details: Escherichia coli, ATCC25922; E. coli ATCC 25922; MHB; read-out: Minimum Inhibitory Concentration, E. coli 25922
In short: as §1

[13] = test system: P. aeruginosa ATCC 27853; test: Broth microdilution MIC in CAMHB; format: cell-based; details: Pseudomonas aeruginosa, ATCC27853; MHB; read-out: Minimum Inhibitory Concentration, P. aeruginosa ATCC 27853
In short: as §1

[14] = target: T1, E. coli K12 PBP3 (Escherichia coli, UniProt P0AD68); test: biochemical; format: binding
T1 construct: made in house
T1 sequence (P0AD68 1-577): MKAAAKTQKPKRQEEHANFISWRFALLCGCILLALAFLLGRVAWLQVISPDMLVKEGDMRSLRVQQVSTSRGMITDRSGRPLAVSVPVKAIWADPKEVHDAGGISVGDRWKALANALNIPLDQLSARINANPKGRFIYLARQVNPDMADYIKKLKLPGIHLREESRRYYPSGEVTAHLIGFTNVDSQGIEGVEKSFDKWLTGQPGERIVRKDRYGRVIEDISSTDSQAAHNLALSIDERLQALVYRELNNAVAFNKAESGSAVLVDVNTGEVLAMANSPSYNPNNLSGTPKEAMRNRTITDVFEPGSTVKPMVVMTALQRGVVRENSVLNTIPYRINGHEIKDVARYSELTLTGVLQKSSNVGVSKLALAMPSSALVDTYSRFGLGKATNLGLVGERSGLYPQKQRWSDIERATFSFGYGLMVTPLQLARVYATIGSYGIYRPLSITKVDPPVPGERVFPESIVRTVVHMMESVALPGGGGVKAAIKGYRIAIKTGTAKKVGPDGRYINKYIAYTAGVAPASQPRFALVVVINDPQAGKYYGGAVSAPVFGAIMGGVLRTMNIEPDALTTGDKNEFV
In short: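 Fluorescence polarization (ex 490/em 520 nm) competition of inhibitors against Bocillin-FL at 0.1 μM, read up to 60 min. Final PBP levels: E. coli PBP3 1.5 μM; A. baumannii PBP2 2.5 μM, PBP3 0.2 μM in Tris pH 8.0/NaCl/glycerol/Tween 20; N. gonorrhoeae PBP2 […] in Hepes pH 8.0/NaCl/glycerol. EC50 = concentration halving PBP-bound Bocillin-FL.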

[15] = target: T2, P. aeruginosa PBP3 (Pseudomonas aeruginosa, UniProt G3XD46); test: Bocillin-FL fluorescence polarization competition binding assay, P. aeruginosa PBP3; details: fluorescence polarization competition binding assay using Bocillin-FL
T2 construct: made in house
T2 sequence (G3XD46 whole entry): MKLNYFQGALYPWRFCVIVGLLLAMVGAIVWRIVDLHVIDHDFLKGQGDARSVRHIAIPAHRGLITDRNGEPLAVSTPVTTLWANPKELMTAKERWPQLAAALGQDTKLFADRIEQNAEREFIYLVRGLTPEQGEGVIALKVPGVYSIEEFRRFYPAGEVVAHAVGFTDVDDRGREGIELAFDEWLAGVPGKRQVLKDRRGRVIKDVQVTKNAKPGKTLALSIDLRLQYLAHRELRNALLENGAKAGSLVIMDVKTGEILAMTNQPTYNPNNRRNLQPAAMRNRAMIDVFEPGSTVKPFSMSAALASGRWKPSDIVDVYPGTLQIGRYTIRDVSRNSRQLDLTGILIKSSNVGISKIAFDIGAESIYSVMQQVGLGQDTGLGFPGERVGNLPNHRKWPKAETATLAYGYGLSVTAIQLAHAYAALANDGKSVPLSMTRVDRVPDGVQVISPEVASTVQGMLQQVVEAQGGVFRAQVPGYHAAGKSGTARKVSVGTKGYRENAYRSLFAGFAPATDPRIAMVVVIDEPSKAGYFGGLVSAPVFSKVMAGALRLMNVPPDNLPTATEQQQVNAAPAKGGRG
In short: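 Binding of boronic acid inhibitors to purified Pseudomonas aeruginosa (PA01) PBP3 was measured by fluorescence polarization competition with Bocillin-FL, a fluorescent penicillin V. Reactions of 80 μl contained 0.75 μM PBP3 and 0.1 μM Bocillin-FL in 50 mM Hepes (pH 8.0), 300 mM NaCl and 5% (v/v) glycerol, in black 384-well plates. FP (Excitation 490 nm, Emission 520 nm) was read for up to 60 minutes. EC50 is the concentration that halves PBP-bound Bocillin-FL.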

**Q.** What does the source list for NCCCN1CCN(C(=O)N[C@@H](C(=O)N[C@H]2Cc3ccc(F)c(C(=O)O)c3OB2O)c2ncc(O)cc2F)C(=O)C1=O [Example 16, (R)-3-((R)-2-(4-(3-aminopropyl)-2,3-dioxopiperazine-1-carboxamido)-2-(3-fluoro-5-hydroxypyridin-2-yl)acetamido)-7-fluoro-2-hydroxy-3,4-dihydro-2H-benzo[e][1,2]oxaborinine-8-carboxylic acid]?
**A.** EC50 [1]: 30 to 100 µM; MIC [2]: 8 to 16 µg/mL (≈ 13.6 to 27.1 µM); MIC [3]: 32 to 64 µg/mL (≈ 54.2 to 108 µM); MIC [4]: 32 to 64 µg/mL (≈ 54.2 to 108 µM); MIC [5]: 8 to 16 µg/mL (≈ 13.6 to 27.1 µM); MIC [6]: > 128 µg/mL; MIC [7]: 2 to 4 µg/mL (≈ 3.39 to 6.78 µM); MIC [8]: 32 to 64 µg/mL (≈ 54.2 to 108 µM); MIC [9]: 8 to 16 µg/mL (≈ 13.6 to 27.1 µM); MIC [10]: 2 to 4 µg/mL (≈ 3.39 to 6.78 µM); MIC [11]: < 0.25 µg/mL; MIC [12]: 8 to 16 µg/mL (≈ 13.6 to 27.1 µM); MIC [13]: 32 to 64 µg/mL (≈ 54.2 to 108 µM); EC50 [14]: < 30 µM; P. aeruginosa PBP3 Potency [15]: D (D represents a potency <10 μM)
